Values of other authors as cited in PMC7388056 (Biomacromolecules, 2020).

System: integrins

Question: For arginine–glycine–aspartic acid [RGD], which “effectiveness relative to parent proteins, in words” value is on record?
Answer: orders-of-magnitude less effective than its parent proteins
